The NIST ThermoML archive (doi:10.1021/je060271a)

Settings: 283.16 K, Liquid, Vibrating tube method

CCCC(=O)OCC(COC(=O)CCC)(COC(=O)CCC)COC(=O)CCC [pentaerythritol tetrabutyrate]
Settings | mass density [kg/m3]
13019 kPa | 1066.7
13044 kPa | 1066.7
13070 kPa | 1066.6
13101 kPa | 1066.6
13127 kPa | 1066.5
13208 kPa | 1066.8
13264 kPa | 1066.8
13291 kPa | 1066.8
13317 kPa | 1066.7
13343 kPa | 1066.8
13374 kPa | 1066.8
13401 kPa | 1066.8
13427 kPa | 1066.8
13460 kPa | 1066.8
13487 kPa | 1066.9
13514 kPa | 1066.9
13541 kPa | 1066.9
13574 kPa | 1066.9
13601 kPa | 1066.9
13628 kPa | 1066.9
13661 kPa | 1067
13689 kPa | 1066.9
13722 kPa | 1067.2
13750 kPa | 1067
13778 kPa | 1067
13807 kPa | 1067.1
13841 kPa | 1067
13870 kPa | 1067.1
13927 kPa | 1067.1
13962 kPa | 1067
13990 kPa | 1067.2
14025 kPa | 1067.1
14054 kPa | 1067.1
14084 kPa | 1067.2
14113 kPa | 1067.2
14149 kPa | 1067.3
14178 kPa | 1067.2
14208 kPa | 1067.2
14245 kPa | 1067.2
14275 kPa | 1067.3
14306 kPa | 1067.5
14343 kPa | 1067.3
14374 kPa | 1067.3
14405 kPa | 1067.4
14436 kPa | 1067.4
14474 kPa | 1067.4
14504 kPa | 1067.4
14536 kPa | 1067.5
14574 kPa | 1067.4
14605 kPa | 1067.5
14638 kPa | 1067.5
14677 kPa | 1067.4
14709 kPa | 1067.5
14741 kPa | 1067.6
14774 kPa | 1067.5
14814 kPa | 1067.7
14846 kPa | 1067.6
14886 kPa | 1067.6
14919 kPa | 1067.6
14952 kPa | 1067.7
14985 kPa | 1067.6
15026 kPa | 1067.6
15059 kPa | 1067.8
15094 kPa | 1067.7
15136 kPa | 1067.7
15170 kPa | 1067.7
15205 kPa | 1067.7
15246 kPa | 1067.9
15282 kPa | 1067.9
15317 kPa | 1067.9
15359 kPa | 1067.8
15394 kPa | 1067.9
15430 kPa | 1068
15473 kPa | 1067.9
15545 kPa | 1067.9
15944 kPa | 1068.3
15983 kPa | 1068.2
16022 kPa | 1068.3
16069 kPa | 1068.4
16110 kPa | 1068.4
16153 kPa | 1068.4
16192 kPa | 1068.3
16240 kPa | 1068.4
16281 kPa | 1068.3
16322 kPa | 1068.3
16363 kPa | 1068.4
16414 kPa | 1068.4
16456 kPa | 1068.5
16498 kPa | 1068.5
16547 kPa | 1068.6
16580 kPa | 1068.5
16614 kPa | 1068.6
16656 kPa | 1068.6
16691 kPa | 1068.8
16726 kPa | 1068.6
16769 kPa | 1068.7
16805 kPa | 1068.8
16839 kPa | 1068.7
16871 kPa | 1068.8
16898 kPa | 1068.8
16924 kPa | 1068.6
16956 kPa | 1068.8
16983 kPa | 1068.7
17011 kPa | 1068.9
17044 kPa | 1068.9
17074 kPa | 1068.9
17104 kPa | 1068.8
17139 kPa | 1069
17162 kPa | 1068.9
17182 kPa | 1068.8
17202 kPa | 1069
17225 kPa | 1068.9
17237 kPa | 1069
17246 kPa | 1069
17257 kPa | 1069
17266 kPa | 1069
17275 kPa | 1068.9
17284 kPa | 1068.8
17295 kPa | 1069
17304 kPa | 1068.9
17313 kPa | 1069.1
17322 kPa | 1069.1
17333 kPa | 1069.1
17342 kPa | 1069
17352 kPa | 1069
17362 kPa | 1069.1
17371 kPa | 1069
17380 kPa | 1069.1
17391 kPa | 1069.1
17400 kPa | 1069
17411 kPa | 1069
17420 kPa | 1069
17429 kPa | 1069.2
17440 kPa | 1069.1
17449 kPa | 1069.1
17458 kPa | 1069
17469 kPa | 1069.1
17478 kPa | 1069.1
17487 kPa | 1069
17498 kPa | 1069.2
17508 kPa | 1069.1
17517 kPa | 1069.1
17528 kPa | 1069.1
17538 kPa | 1069.1
17547 kPa | 1069.1
17556 kPa | 1069.2
17568 kPa | 1069.2
17577 kPa | 1069.2
17586 kPa | 1069.2
17598 kPa | 1069.1
17607 kPa | 1069.2
17618 kPa | 1069.1
17628 kPa | 1069.2
17637 kPa | 1069.2
17646 kPa | 1069.1
17658 kPa | 1069.1
17668 kPa | 1069.2
17678 kPa | 1069.3
17687 kPa | 1069.2
17698 kPa | 1069.3
17708 kPa | 1069.2
17717 kPa | 1069.2
17790 kPa | 1069.3
17800 kPa | 1069.4
17810 kPa | 1069.3
17820 kPa | 1069.2
17831 kPa | 1069.3
17841 kPa | 1069.3
17850 kPa | 1069.3
17862 kPa | 1069.3
17872 kPa | 1069.3
17882 kPa | 1069.3
17892 kPa | 1069.3
17903 kPa | 1069.4
17913 kPa | 1069.3
17922 kPa | 1069.4
17935 kPa | 1069.4
17944 kPa | 1069.4
17954 kPa | 1069.3
17966 kPa | 1069.4
17976 kPa | 1069.5
17986 kPa | 1069.4
17997 kPa | 1069.4
18007 kPa | 1069.4
18017 kPa | 1069.5
18029 kPa | 1069.4
18039 kPa | 1069.5
18049 kPa | 1069.3
18061 kPa | 1069.4
18071 kPa | 1069.4
18081 kPa | 1069.5
18157 kPa | 1069.4
18188 kPa | 1069.4
18199 kPa | 1069.5
18209 kPa | 1069.5
18219 kPa | 1069.6
18231 kPa | 1069.6
18241 kPa | 1069.4
18254 kPa | 1069.5
18286 kPa | 1069.5
18361 kPa | 1069.6
18371 kPa | 1069.7
18381 kPa | 1069.5
18394 kPa | 1069.7
18404 kPa | 1069.6
18414 kPa | 1069.7
18426 kPa | 1069.5
18436 kPa | 1069.6
18449 kPa | 1069.6
18459 kPa | 1069.6
18469 kPa | 1069.7
18480 kPa | 1069.6
18492 kPa | 1069.7
18502 kPa | 1069.7
18513 kPa | 1069.7
18525 kPa | 1069.7
18536 kPa | 1069.7
18548 kPa | 1069.7
18559 kPa | 1069.6
18569 kPa | 1069.6
18579 kPa | 1069.8
18592 kPa | 1069.7
18603 kPa | 1069.8
18614 kPa | 1069.7
18627 kPa | 1069.6
18637 kPa | 1069.7
18648 kPa | 1069.8
18658 kPa | 1069.7
18669 kPa | 1069.7
18682 kPa | 1069.8
18692 kPa | 1069.7
18703 kPa | 1069.8
18716 kPa | 1069.7
18726 kPa | 1069.8
18737 kPa | 1069.8
18750 kPa | 1069.8
18761 kPa | 1069.7
18772 kPa | 1069.7
18783 kPa | 1069.8
18794 kPa | 1069.8
18806 kPa | 1069.8
18817 kPa | 1069.9
18830 kPa | 1069.9
18841 kPa | 1069.9
18851 kPa | 1069.8
18875 kPa | 1069.9
18886 kPa | 1069.9
18910 kPa | 1069.9
18921 kPa | 1069.9
18934 kPa | 1069.9
18945 kPa | 1069.9
19002 kPa | 1069.9
19015 kPa | 1069.9
19026 kPa | 1070
19039 kPa | 1070
19050 kPa | 1070
19062 kPa | 1070
19073 kPa | 1070
19084 kPa | 1069.9
19097 kPa | 1070
19108 kPa | 1070.1
19119 kPa | 1070.1
19132 kPa | 1070.1
19154 kPa | 1069.9
19168 kPa | 1070
19179 kPa | 1070.1
19190 kPa | 1070
19204 kPa | 1070
19215 kPa | 1070.1
19226 kPa | 1070.1
19240 kPa | 1070.1
19251 kPa | 1070.1
19262 kPa | 1070.1
19274 kPa | 1070.1
19287 kPa | 1070.1
19299 kPa | 1070
19310 kPa | 1070.2
19323 kPa | 1070.1
19335 kPa | 1070.2
19408 kPa | 1070.2
19444 kPa | 1070.2
19482 kPa | 1070.2
19493 kPa | 1070.2
19507 kPa | 1070.1
19518 kPa | 1070.1
19530 kPa | 1070.2
19544 kPa | 1070.2
19556 kPa | 1070.1
19568 kPa | 1070.3
19579 kPa | 1070.3
19593 kPa | 1070.2
19605 kPa | 1070.3
